# Results: publication PMC6982817, “Substituted N-(Pyrazin-2-yl)benzenesulfonamides; Synthesis, Anti-Infective Evaluation, Cytotoxicity, and In Silico Studies” (Molecules, 2019)
# Where two headings read alike, the source gives them in different places.
# Tests used:
# [1] = system: Mycobacterium tuberculosis H37Rv CNCTC My 331/88 (ATCC 27294); settings: cited from earlier work; for Antimycobacterial Activity MIC against Mtb H37Rv, Amide: previously published pyrazinecarboxamides, methodology not identical; for Antimycobacterial Activity MIC against Mtb H37Rv, Retro-amide: previously published N-pyrazinylbenzamides
# [2] = system: Mycobacterium smegmatis DSM 43465 (ATCC 607); assay: Antimycobacterial microdilution assay, M. smegmatis; format: cell-based; settings: for MIC: Mycolicibacterium smegmatis
# [3] = system: Mycobacterium aurum DSM 43999 (ATCC 23366); assay: Antimycobacterial microdilution assay, M. aurum; format: cell-based; settings: Middlebrook 7H9 broth, resazurin after 72 hours; for MIC: Mycolicibacterium aurum, 72 h
# [4] = system: Staphylococcus aureus CCM 4223 (ATCC 29213); assay: Antibacterial microdilution broth, S. aureus; format: cell-based; settings: 48 h, read-out: MIC against Staphylococcus aureus
# [5] = system: Staphylococcus aureus methicillin-resistant CCM 4750 (ATCC 43300); assay: Antibacterial microdilution broth, MRSA; format: cell-based; settings: 48 h, read-out: MIC against Staphylococcus aureus methicillin resistant
# [6] = system: Enterococcus faecalis CCM 4224 (ATCC 29212); assay: Antibacterial microdilution broth, E. faecalis; format: cell-based; settings: 48 h, read-out: MIC against Enterococcus faecalis
# [7] = system: Escherichia coli CCM 3954 (ATCC 25922); assay: Antibacterial microdilution broth, E. coli; format: cell-based; settings: 48 h, read-out: MIC against Escherichia coli
# [8] = system: Pseudomonas aeruginosa CCM 3955 (ATCC 27853); assay: Antibacterial microdilution broth, P. aeruginosa; format: cell-based; settings: 48 h, read-out: MIC against Pseudomonas aeruginosa
# [9] = system: Staphylococcus epidermidis 112-2016; assay: Antibacterial microdilution broth, S. epidermidis; format: cell-based; settings: Staphylococcus epidermidis, 1122016, 48 h; read-out: MIC against Staphylococcus epidermidis
# [10] = system: Klebsiella pneumoniae 64-2016; assay: Antibacterial microdilution broth, K. pneumoniae; format: cell-based; settings: Klebsiella pneumoniae, 642016, 48 h; read-out: MIC against Klebsiella pneumonia
# [11] = system: Serratia marcescens 62-2016; assay: Antibacterial microdilution broth, S. marcescens; format: cell-based; settings: Serratia marcescens, 622016, 48 h; read-out: MIC against Serratia marcescens
# [12] = system: Mycobacterium tuberculosis H37Rv CNCTC My 331/88 (ATCC 27294); assay: Antimycobacterial microplate alamar blue assay, M. tuberculosis H37Rv; format: cell-based; settings: for MIC: Mycobacterium tuberculosis, pH 6.6, Middlebrook 7H9 broth pH 6.6, alamar blue, read-out: Antimycobacterial Activity MIC Mtb H37Rv
# [13] = system: M. kansasii CNCTC My 235/80 (ATCC 12478); assay: Antimycobacterial microplate alamar blue assay, M. kansasii; format: cell-based, Mycobacterium kansasii; settings: for MIC: Mycobacterium kansasii
# [14] = system: M. avium ssp. avium CNCTC My 80/72 (ATCC 15769); assay: Antimycobacterial microplate alamar blue assay, M. avium; format: cell-based, Mycobacterium avium; settings: for MIC: Mycobacterium avium, ATCC15769, pH 6.6, Middlebrook 7H9 broth pH 6.6, alamar blue, read-out: Antimycobacterial Activity MIC M. avium
# [15] = in vitro; settings: human
# [16] = physchem
# Description: (§1) Three compounds 6b, 9b and 13b were selected and their pKa values were determined experimentally using potentiometric and absorbance methods (Table 2).
# (§2) For the spectrophotometric method, 1 μM solution of the compound in question was prepared in methanol. The spectra of the sample at several (at least seven) different pH values were measured against blank (water) using a Helios spectrophotometer (Unicam Cambridge). The pH valued covered the region in which all sample molecules were converted from ionized to molecular form or vice versa. Each cuvette contained 200 μL of the sample solution and 1.8 mL of the corresponding buffer. The pH values used and the absorbances allowed us to calculate the pKa of the sample according to the following equation: pKa=pH+log(Ai−A/A−Au) where A is the absorbance of the compound at the corresponding buffer, Ai is the absorbance of the ionized state of the compound and Au is the absorbance of the unionized state. The final pKa was the average of all the pKa at different pH values. For the potentiometric measurements, 1 μM solution of the compound in question was prepared in 3:2 water:methanol, with the addition of 100 μL of 0.1% NaOH. Then small amounts (100 μL) of 0.01% HCl were added repeatedly and the pH was measured each time using a pH meter (inoLab® pH 7110 Czech Republic). The inflection point of the titration curve determined the pKa.
# [17] = physchem; remark: listed apart in the source
# Description: as §1, §2
# [18] = system: HepG2 cells; settings: cited from earlier work
# [19] = system: C. krusei CCM 8271 (ATCC 6258); assay: Antifungal microdilution broth, C. krusei; format: cell-based, Candida krusei; settings: Pichia kudriavzevii, 48 h; read-out: MIC against C. krusei
# [20] = system: C. parapsilosis CCM 8260 (ATCC 22019); assay: Antifungal microdilution broth, C. parapsilosis; format: cell-based, Candida parapsilosis; settings: Lodderomyces parapsilosis, 48 h; read-out: MIC against C. parapsilosis
# [21] = system: C. tropicalis CCM 8264 (ATCC 750); assay: Antifungal microdilution broth, C. tropicalis; format: cell-based; settings: Candida tropicalis, 48 h; read-out: MIC against C. tropicalis
# [22] = system: Aspergillus flavus CCM 8363; assay: Antifungal microdilution broth, A. flavus; format: cell-based; settings: CCM8363, 48 h, read-out: MIC against Aspergillus flavus
# [23] = system: Lichtheimia corymbifera CCM 8077; assay: Antifungal microdilution broth, L. corymbifera; format: cell-based; settings: CCM8077, 48 h, read-out: MIC against Lichtheimia corymbifera
# [24] = system: Trichophyton interdigitale CCM 8377 (ATCC 9533); assay: Antifungal microdilution broth, T. interdigitale; format: cell-based; settings: 72 h, read-out: MIC against Trichophyton interdigitale
# [25] = 48 h, Middlebrook 7H9 broth, resazurin after 48 hours, read-out: Antimycobacterial Activity MIC M. smeg
# [26] = ATCC12478, pH 6.6, Middlebrook 7H9 broth pH 6.6, alamar blue, read-out: Antimycobacterial Activity MIC M. kansasii
# [27] = Middlebrook 7H9 broth pH 6.6, alamar blue
# [28] = ATCC12478, molar value printed beside μg/mL in text, read-out: MIC M. kansasii
Structure (SMILES),"MIC [2, 25] [µg/mL]",MIC [3] [µg/mL],MIC [12] [µg/mL],"MIC [13, 26] [µg/mL]",MIC [14] [µg/mL],IC50 at 24 h [15] [µM],melting point [°C],other results
O=C(Nc1ccccc1)c1cncc(Cl)n1 [Amide R^1 6-Cl R^2 H],,,,,,,,"Antimycobacterial Activity MIC against Mtb H37Rv, Amide [1]: >100 µg/mL"
COc1ccc(NC(=O)c2cnccn2)cc1 [Amide R^1 H R^2 4-OCH3],,,,,,,,"Antimycobacterial Activity MIC against Mtb H37Rv, Amide [1]: 25 µg/mL"
O=C(Nc1ccccc1)c1cnccn1 [Amide R^1 H R^2 H],,,,,,,,"Antimycobacterial Activity MIC against Mtb H37Rv, Amide [1]: 100 µg/mL"
O=C(O)c1cn(C2CC2)c2cc(N3CCNCC3)c(F)cc2c1=O [CPX],0.0625 to 0.125,0.00781 to 0.0156,,,,,,"Antimycobacterial Activity MIC M. smeg ([2]; Middlebrook 7H9 broth, resazurin after 48 hours): 0.125 µg/mL; Antimycobacterial Activity MIC M. aurum [3]: 0.008 µg/mL; MIC [4]: 0.128 to 0.256 µg/mL; MIC [5]: 0.128 µg/mL; MIC [6]: 0.512 µg/mL; MIC [7]: 0.008 µg/mL; MIC [8]: 0.128 µg/mL; MIC [9]: > 1.02 µg/mL; MIC [10]: > 1.02 µg/mL; MIC [11]: 0.256 µg/mL"
"COc1ccc(S(=O)(=O)Nc2cncc(Cl)n2)cc1 [Compound 6b, N-(6-chloropyrazin-2-yl)-4-methoxybenzenesulfonamide]",≥ 500,≥ 500,> 100,100,> 100,> 1000,,pKa [16]: 6.95; pKa [17]: 7.21
"Cc1cc(C)c(S(=O)(=O)Nc2cncc(Cl)n2)c(C)c1 [Compound 9b, N-(6-chloropyrazin-2-yl)-2,4,6-trimethylbenzenesulfonamide]",≥ 500,≥ 500,> 100,50,> 100,180,179.7 to 180.2,pKa [16]: 6.32; pKa [17]: 6.38
"O=S(=O)(Nc1cnccn1)c1ccc2c(c1)OCCO2 [Compound 11a, N-(pyrazin-2-yl)-2,3-dihydrobenzo[b][1,4]dioxine-6-sulfonamide]",≥ 500,250,> 100,> 100,> 100,> 1000,264 to 267.1,"Antimycobacterial Activity MIC M. kansasii [13, 27]: >100 µg/mL; MIC [13, 28]: > 305 µM"
"O=S(=O)(Nc1cncc(Cl)n1)c1ccc2c(c1)OCCO2 [Compound 11b, N-(6-chloropyrazin-2-yl)-2,3-dihydrobenzo[b][1,4]dioxine-6-sulfonamide]",≥ 500,≥ 500,> 100,25,> 100,778,244.6 to 247,"MIC [13, 28]: 76.3 µM"
"O=S(=O)(Nc1cncc(Cl)n1)c1ccc(-c2ccccc2)cc1 [Compound 12b, N-(6-chloropyrazin-2-yl)-[1,1′-biphenyl]-4-sulfonamide]",≥ 500,≥ 500,100,12.5,> 100,302,229.3 to 230.3,"MIC [13, 28]: 36.1 µM"
"O=S(=O)(Nc1cnccn1)c1ccc2ccccc2c1 [Compound 13a, N-(pyrazin-2-yl)naphthalene-2-sulfonamide]",62.5,≥ 500,> 100,50,> 100,> 500,223.5 to 224.7,MIC ([2]; read-out: MIC M. smegmatis): 219 µM
"O=S(=O)(Nc1cncc(Cl)n1)c1ccc2ccccc2c1 [Compound 13b, N-(6-chloropyrazin-2-yl)naphthalene-2-sulfonamide]",125,250,50,50,> 100,> 1000,204.6 to 207,pKa [16]: 5.63; pKa [17]: 5.75
"O=S(=O)(Nc1cnccn1)c1ccc2ncccc2c1 [Compound 14a, N-(pyrazin-2-yl)quinoline-6-sulfonamide]",≥ 500,≥ 500,> 100,100,> 100,> 250,249.4 to 252,
"NNC(=O)c1ccncc1 [INH, reference compound]",,,0.1 to 0.2,,6.25 to 12.5,,,"Antimycobacterial Activity MIC Mtb H37Rv [12, 27]: 0.2 µg/mL; MIC [13, 28]: 182 µM; Antimycobacterial Activity MIC M. avium [14, 27]: 12.5 µg/mL; IC50 [18]: 79000 µM"
"NC(=O)c1cnccn1 [PZA, reference compound]",≥ 500,≥ 500,> 100,> 100,> 100,,,IC50 [18]: > 10000 µM
O=C(Nc1cncc(Cl)n1)c1ccccc1 [Retro-amide R^1 6-Cl R^2 H],,,,,,,,"Antimycobacterial Activity MIC against Mtb H37Rv, Retro-amide [1]: 25 µg/mL"
COc1ccc(C(=O)Nc2cnccn2)cc1 [Retro-amide R^1 H R^2 4-OCH3],,,,,,,,"Antimycobacterial Activity MIC against Mtb H37Rv, Retro-amide [1]: >100 µg/mL"
O=C(Nc1cnccn1)c1ccccc1 [Retro-amide R^1 H R^2 H],,,,,,,,"Antimycobacterial Activity MIC against Mtb H37Rv, Retro-amide [1]: >100 µg/mL"
C[C@@H]1[C@H](O)[C@@H](C)/C=C/C=C/C=C/C=C/C=C/C=C/C=C/[C@H](O[C@@H]2O[C@H](C)[C@@H](O)[C@H](N)[C@@H]2O)C[C@@H]2O[C@](O)(C[C@@H](O)C[C@@H](O)[C@H](O)CC[C@@H](O)C[C@@H](O)CC(=O)O[C@H]1C)C[C@H](O)[C@H]2C(=O)O [amphotericin B],,,,,,,,MIC [19]: 1 µg/mL; MIC [20]: 0.5 µg/mL; MIC [21]: 1 µg/mL; MIC [22]: 8 µg/mL; MIC [23]: 0.5 µg/mL; MIC [24]: 2 µg/mL
CNC(C)C1CCC(N)C(OC2C(N)CC(N)C(OC3OCC(C)(O)C(NC)C3O)C2O)O1 (centres unmarked) [gentamicin],,,,,,,,MIC [4]: 1 µg/mL; MIC [5]: 16 to 32 µg/mL; MIC [6]: 8 µg/mL; MIC [7]: 1 to 2 µg/mL; MIC [8]: 0.5 µg/mL; MIC [9]: > 8 µg/mL; MIC [10]: > 8 µg/mL; MIC [11]: 2 µg/mL
